Laboratory results published in patent publication US7713939B2, “Illudin analogs useful as antitumor agents” (priority 1996, dated 2010).

Assays:
[1] = system: 8392 (B-cell leukemia/lymphoma) cells; assay: 2 hour exposure, [3H]-thymidine incorporation; format: cell-based
Experimental: (§1) To assess cytotoxic effects, various concentrations of illudins were added to cultures of MV522 (human lung carcinoma cell line) and 8392 (B-cell leukemia/lymphoma) cells for 48 hours, then cell growth/viability was determined by trypan blue exclusion. As an alternative to 48 hour continuous exposure studies, cells were plated in liquid culture in 96 well plates, exposed to various concentrations of illudins for 2 hours, pulsed with [^3H]-thymidine for one to two hours and harvested onto glass filters. The filter papers were added to vials containing scintillation fluid and residual radioactivity determined in a beta (scintillation) counter.

[2] = system: MV522 lung carcinoma line; details: for efficacy in MV522 xenograft (in words): summary of the in vivo table
Description: Several analogs were chosen for in vivo studies. […] Drug therapy was started 10 days after inoculation on a daily basis via IP route for 5 consecutive days. The animals were monitored for 3 weeks after start of therapy.
BALB/c nu/nu 4-week old female mice weighing 18-22 g were obtained from Simonsen, Inc. (Gilroy, Calif.) and maintained in the athymic mouse colony of the University of California (San Diego, Calif.) under pathogen free conditions using HEPA filter hoods. Animals were provided with sterilized food and water ad libitum in groups of 5 in plastic cages vented with polyester fiber filter covers. Clean, sterilized gowns, glove, face masks, and shoe and hood covers were worn by all personnel handling the animals. All studies were conducted in accordance with guidelines of the NIH “Guide for Care and Use of Animals” and approved by the University Institutional Animal Care and Use Committee (Protocol 3-006-2)
The MV522 lung carcinoma line used for xenograft studies was derived as described by Kelner et al. (Anticancer Res., 15: 867-872; 873-878 (1995)) and maintained in antibiotic-free RPMI 1640 (Mediatech, Herndon, Va.) supplemented with 10% fetal bovine serum and 2 mM glutamine in 37° C. humidified carbon dioxide incubator.
Each animal was earmarked and followed individually throughout the experiments. Mice received s.c. injections of the parental cell line MV522 using 10 million cells/inoculation over the shoulder. Ten days after s.c. implantation of the MV522 cells, when s.c. tumors were approximately 3×3 mm in size, animals received the desired drug and dosage. The effect of the drug on life span was calculated from median survival.
Although MV522 cells kill mice by metastases, primary s.c. tumor growth over the shoulder was monitored starting on the first day of treatment and at weekly intervals thereafter. Tumor size was measured in two perpendicular diameters. Tumor weights were estimated according to the formula w=(width)^2×length/2). Relative weights (RW) were calculated to standardized variability in tumor size among test groups at initiation of treatment using the formula RW=Wt/wi, where Wi is the tumor weight for a given animal at beginning of drug treatment and Wt is tumor weight at a subsequent time. Animals were necropsied, and organs were examined for evidence of metastases.
Comparison of survival curves between groups of animals was by the method of Kaplan and Meir. For comparison of relative tumor weights between multiple groups of animals, ordinary ANOVA followed by Turkey-Kramer multiple Comparison post ANOVA analysis was preformed (Kelner et al. (Aniticancer Res., 15: 867-872; 873-878 (1995)). Probability values (p) less than 0.05 were considered statistically significant.

[3] = system: MV522 (human lung carcinoma cell line); assay: 2 hour exposure, [3H]-thymidine incorporation; format: cell-based
Experimental: as §1

[4] = system: MV522 (human lung carcinoma cell line); assay: 48 hour continuous exposure, trypan blue exclusion; format: cell-based; details: 48 hour exposure
Experimental: as §1

[5] = system: 8392 (B-cell leukemia/lymphoma) cells; assay: 48 hour continuous exposure, trypan blue exclusion; format: cell-based; details: 48 hour exposure
Experimental: as §1

Dunning leukemia = details: rats with Dunning leukemia; cited from earlier work
solid tumor systems = details: cited from earlier work

COC(=O)CSCC1=C(C)C=C2C(=O)C(C)(O)C3(CC3)C(C)=C21 (stereo not shown) [Compound 25]
IC50 [1]: > 25 µM

CO[C@@]12[C@H](COC(N)=O)C3=C(C(=O)C(C)=C(N)C3=O)N1C[C@@H]1N[C@@H]12 [Mitomycin C, reference compound]
day before which all animals succumbed ([2]; mouse, in vivo): < 31 days

CC1=C(CSCc2ccccc2)C2=C(C)C3(CC3)C(C)(O)C(=O)C2=C1 (stereo not shown) [Compound 24]
IC50 [1]: 12.8 ± 2.14 µM

CC1=C(CSc2ccc(O)cc2)C2=C(C)C3(CC3)C(C)(O)C(=O)C2=C1 (stereo not shown) [Compound 23]
IC50 [1]: 138 ± 13 µM
IC50 [3]: 2.92 ± 1.14 µM
IC50 [4]: 2.75 ± 0.51 µM

CC(=O)OCOCC1=C(C)C=C2C(=O)C(C)(O)C3(CC3)C(C)=C21 (stereo not shown) [Compound 8]
IC50 [3]: 0.87 ± 0.09 µM
IC50 [5]: 15.1 ± 2.2 µM
IC50 [4]: 0.63 ± 0.08 µM

CC1=C(CCCO)C2=C(C)C3(CC3)C(C)(O)C(=O)C2=C1 (stereo not shown) [Compound 9]
IC50 [1]: 47.1 ± 11 µM
IC50 [5]: 15.1 ± 2.2 µM

CCOCC1=C(C)C=C2C(=O)C(C)(O)C3(CC3)C(C)=C21 (stereo not shown) [Compound 16]
efficacy in MV522 xenograft (in words) [2]: effective

CC1=C(CC2CC(C=O)CC(C=O)C2O)C2=C(C)C3(CC3)C(C)(O)C(=O)C2=C1 (mixture of isomers) [Compound 13]
IC50 [3]: 5.12 ± 0.65 µM

CC1=C(CCC=O)C2=C(C)C3(CC3)C(C)(O)C(=O)C2=C1 (stereo not shown) [Compound 10]
IC50 [1]: 29.4 ± 1.6 µM
IC50 [5]: 14.5 ± 1.65 µM

CC1=C2C(=CC(C)(C)[C@@H]2O)C(=O)[C@](C)(O)C12CC2 [Illudin M]
life span (Dunning leukemia): significantly increased
therapeutic index (solid tumor systems): low

CC1=C2C(=CC3(C)COCOC23)C(=O)C(C)(O)C12CC2 (stereo not shown) [Compound 14]
IC50 [1]: 9.65 ± 1.2 µM
IC50 [3]: 0.115 ± 0.03 µM

CC1=C(C=O)C2=C(C)C3(CC3)C(C)(O)C(=O)C2=C1 (stereo not shown) [Compound 11]
IC50 [1]: > 100 µM
IC50 [3]: 4.9 ± 0.9 µM
IC50 [5]: 40.4 ± 6.7 µM

COC(C)(C)OCC1=C(C)C=C2C(=O)C(C)(O)C3(CC3)C(C)=C21 (stereo not shown) [Compound 21]
IC50 [1]: 34.3 ± 9.4 µM
IC50 [4]: 0.93 ± 0.25 µM
efficacy in MV522 xenograft (in words) [2]: more efficacious than HMAF

CC1=C(COCCO)C2=C(C)C3(CC3)C(C)(O)C(=O)C2=C1 (stereo not shown) [Compound 22]
IC50 [1]: 31.7 ± 1.4 µM
IC50 [4]: 0.68 ± 0.18 µM

CC1=C2C=CC=C2C(=O)C2(OCCO2)C12CC2 [Compound 33]
IC50 [1]: 29.9 ± 3.3 µM
IC50 [3]: > 4 µM
IC50 [4]: 4.6 ± 0.2 µM
efficacy in MV522 xenograft (in words) [2]: effective

CC1=C(CSCC(O)CO)C2=C(C)C3(CC3)C(C)(O)C(=O)C2=C1 (stereo not shown) [Compound 32]
IC50 [1]: > 50 µM
IC50 [3]: 0.595 ± 0.185 µM
efficacy in MV522 xenograft (in words) [2]: effective
